Laboratory results: patent US20130079309A1, “Method Of Treating Acute Lung Injury Using Sphingosine 1 Phosphate Analogs Or Sphingosine 1 Phosphate Receptor Agonists” (The Board of Trustees of the University of Illinois, priority 2010, published 2013)
Residues, ends and D or L forms follow the SMILES beside them. *: point of attachment. Cbz = O=C(OCc1ccccc1)*

Tests used:
S1P receptor 1 (S1PR1) [1] = target: T1, S1P receptor 1 (S1PR1) (Homo sapiens, UniProt P21453); test: Ubiquitination of S1PR1 in HPAEC (immunoprecipitation, ubiquitin Ab); conditions: for ubiquitination of S1PR1 at 2 h: 1 μM (SEW2871 10 μM)
Text: S1PR1 was immunoprecipitated by S1PR1Ab, and ubiquitination of S1PR1 was detected by ubiquitin Ab.

S1P receptor 1 (S1PR1) [2] = target: T1, S1P receptor 1 (S1PR1); test: S1PR1 protein expression in HPAEC by Western blot; type: cell-based; parameters: Cells were collected and S1PR1 expression level was detected by Western blot; endogenous in cells; host or cells: HPAEC (human pulmonary artery endothelial cells); conditions: for S1PR1 expression level compared to control: 1 μM (SEW2871 10 μM), 4 h
Text: Cells were collected and S1PR1 expression level was detected by Western blot.

[3] = system: lung vascular leakage in RILI mice; test: ViSen FMT lung imaging of intravascular probe extravasation in RILI mice; type: in vivo, mouse; conditions: 0.1 mg/kg, 25 Gy, 6 weeks
Method: Lung imaging studies were also performed with assessment of RILI-induced extravasation of an intravascular probe.
To assess microvascular changes associated with RILI in real-time, mice were imaged with ViSen FMT 1500 Quantitative Tomography In Vivo Imaging System. Intergisens^750 NIR (ViSen Medicals, Bedford, Mass.) was used as a probe, which targets the vasculature as a selective non-peptide small molecule integrin αvβ3 antagonist and a near-infrared fluorochrome. Mice were injected with probe ([…], IV) at 6 weeks post radiation and imaged 24 hrs later. Probe intensity was quantified using TrueQuant 3D software (VisSen Medicals).

β-arrestin = conditions: 1 μM (SEW2871 10 μM; (S)-FTY720-phosphonate 1, 10, 50 μM), 5 h
Method: After another 2 h-incubation with fluorescence substrate, the fluorescence intensity (blue and green channels) were detected and the blue/green emission ratio was used as the activation indicator.

[4] = system: radiation-induced lung injury (RILI) in C57BL/6 mice; test: Murine model of RILI: BAL protein, BAL cell counts, BAL cytokines, EBD extravasation, body weight, lung histology; type: in vivo, mouse; conditions: 6 weeks
Method: Eight to 10-week-old C57BL/6J mice (Jackson Labs, Bar Harbor, Me.) were used for all studies in accordance with the University of Chicago Institutional Animal Care & Use Committee guidelines.
At the termination of each experiment, animals were euthanized by exsanguination under anesthesia in accordance with institutional guidelines. Both lungs were lavaged with 1.0 mL of Hank's buffered saline solution with the fluid allowed to equilibrate for 10 s before withdrawing. The pulmonary vasculature was perfused clear via the pulmonary artery with sterile phosphate-buffered saline (PBS). Both lungs were excised, weighed, and snap-frozen in liquid nitrogen for subsequent analysis. The BAL fluid collected was centrifuged at 500×g for 20 min at 4° C., and the supernatant was removed and recentrifuged at 12,000×g before snap-freezing. Cell pellets were resuspended in 0.5 mL of red blood cell lysis buffer (ACK Lysing Buffer; BioSource International, Camarillo, Calif.) for 20 min and then repelleted by centrifugation at 2500 rpm for 20 min at 4° C. The supernatant was decanted, and the cell pellet was resuspended in 0.2 mL of PBS for cellular analysis using a standard hemacytometer technique. A total of 300 BAL cells per slide were counted for cell differentials using a Diff-Quick-stained kit (Baxter Diagnostics, McGaw Park, Ill.). BAL protein concentrations were determined by a colorimetric BCA assay. Albumin concentrations in the BAL at 1:1000 and 1:100 dilutions, respectively, were quantitated by ELISA (Bethyl Labs, Montgomery, Tex.). To measure cytokines and chemokines, the BAL fluid was assayed with a Bioplex mouse cytokine kit (Bio-Rad, Hercules, Calif.) in accordance with the manufacturer's instructions.
All other chemicals were analytical or cell-culture grade and were obtained from various commercial sources. Evans Blue dye conjugated to albumin (EBA) was prepared by dissolving EBD to a concentration of 0.5% (5 mg/mL or 5.2 mM) in phosphate-buffered saline (PBS) (Ca^2+-Mg^2+ free; Invitrogen Corporation, Carlsbad, Calif.). To this solution, BSA was added to a final concentration of 4% (40 mg/mL or 0.6 mM), mixed well by stirring with a magnetic bar, allowed to stand for 30 min, and then sterile-filtered through a 0.22-μm syringe filter. The conjugate was stored in small aliquots at −80° C. To prevent cross-contamination, each aliquot was used only once in one animal and then discarded. 4, 6, 8, or 12 weeks after irradiation, the animals were injected with EBA via the jugular vein. At the end of exposure, the pulmonary circulation was flushed and lungs were harvested. Formamide extracts of lungs were prepared, with the initial modification that the homogenates were centrifuged at 12,000×g. Centrifugation at this relative centrifugal force (RCF) produced a compact pellet that allowed accurate measurement of the recovered volumes. Accurate estimation of such volumes is critical for calculating the final tissue dilution factor. Lungs, kidneys, and hearts from mice that were not injected with EBA were similarly extracted, to calculate the tissue-specific correction factors. […] Linear regression equations between absorbance at 740 nm (X) and 620 nm (Y) in tissue extracts of animals untreated with EBA were considered to be the tissue-specific correction factors. […] The EB concentration read in mg/mL was converted to μg/g wet weight of lungs using the dilution factor of the original homogenate as described above.
Eight to 10-week-old C57BL/6J mice (Jackson Labs, Bar Harbor, Me.) were used for all studies in accordance with the University of Chicago Institutional Animal Care & Use Committee guidelines. […] (FIG. 4A). Bronchoalveolar lavage (BAL) was performed as described above. BAL protein concentrations were determined by a colorimetric BCA assay. Albumin concentrations in the BAL at 1:1000 and 1:100 dilutions, respectively, were quantitated by ELISA (Bethyl Labs, Montgomery, Tex.).

ERK = test: Western blotting of HPAEC lysates for phospho-ERK; type: cell-based, human; conditions: 5 min
Method: (§1) After treatment as outlined for individual experiments, confluent HPAEC were lysed for Western blotting with phospho-MLC, pan-MLC, phospho-ERK, or pan-ERK antibodies. […] Membranes were then immunoblotted with primary antibodies (1:500-1000, 4° C., overnight) followed by secondary antibodies conjugated to horseradish peroxidase (1:5000, room temperature, 30 min) and detected with enhanced chemiluminescence (Pierce ECL or SuperSignal West Dura; Pierce Biotechnology, Rockford, Ill.) on Biomax MR film (Carestream Health, Rochester, N.Y.).

HPAEC [5] = test: Pharmacologic inhibitor effects on barrier enhancement (TER); conditions: 1 μM agonist, 60 min; for % Inhibition of Maximal TER Response (of Agonist-Only Control), PTX: 2-h preincubation 100 ng/ml PTX; for % Inhibition of Maximal TER Response (of Agonist-Only Control), MβCD: 2-h preincubation 2 mM MβCD; for % Inhibition of Maximal TER Response (of Agonist-Only Control), Gen: 30-min preincubation 200 μM genistein
Method: Endothelial cells were grown to confluence in polycarbonate wells containing evaporated gold microelectrodes (surface area, 10^−3 cm^2) in series with a large gold counter electrode (1 cm^2) connected to a phase-sensitive lock-in amplifier. Current was applied across the electrodes by a 4,000-Hz AC voltage source with amplitude of 1 V in series with a 1 MΩ resistance to approximate a constant current source (˜1 μA). The in-phase and out-of-phase voltages between the electrodes were monitored in real time with the lock-in amplifier and subsequently converted to scalar measurements of transendothelial impedance, of which resistance was the primary focus. TER was monitored for 30 minutes to establish a baseline resistance (R0) which, for bovine pulmonary endothelium, was typically between 8 to 12×10^3Ω (wells with R0<7×10^3Ω were rejected). As cells adhere and spread out on the microelectrode, TER increases (maximal at confluence), whereas cell retraction, rounding, or loss of adhesion is reflected by a decrease in TER. These measurements provide a highly sensitive biophysical assay that indicates the state of cell shape and focal adhesion. Values from each microelectrode were pooled at discrete time points and plotted versus time as the mean±SE of the mean. TER values from each microelectrode were pooled as discrete time points and plotted versus time as the mean±S.E.M.
In this experiment, confluent HPAEC were plated on gold microelectrodes and then stimulated with 1 μM S1P, FTY720, 1R, 1S, 2R, or 2S after either a 2-h preincubation with 100 ng/ml PTX, 30-min preincubation with 200 μM genistein (Gen), or 2-h preincubation with 2 mM MβCD or their respective vehicle controls. Data were pooled from multiple TER experiments (4-10 independent experiments per condition) and expressed as percentage inhibition of maximal barrier enhancement at 60 min relative to agonist-only control.

HPAEC [6] = test: Transendothelial electrical resistance (TER) of HPAEC; type: cell-based, human; conditions: for maximal percentage TER change compared with S1P and FTY720 / maximal TER change: within 60 min; for maximal TER change: 10 μM
Method: Cells were grown at 37° C. in a 5% CO2 incubator, and passages 6 to 9 were used for experiments. Media were changed 1 day before experimentation.

MLC = test: Western blotting of HPAEC lysates for phospho-MLC; type: cell-based, human; conditions: 5 min
Method: as §1

HPAEC [7] = test: Transwell transendothelial permeability assay (FITC-dextran); type: cell-based, human; conditions: 1 μM (3R, 3S 25 μM), 1 h before FITC-dextran, 2-h incubation
Method: As a complementary approach to further characterize the barrier-protective effects of these FTY720 analogs in vitro, the permeability of FITC-labeled dextran across the pulmonary EC monolayer was assayed in response to treatment by the FTY720 analogs. […] Data were normalized to unstimulated control. n=3 independent experiments per condition; *, p<0.01 versus unstimulated condition (see FIG. 26).

[8] = 0.01 or 0.1 mg/kg i.p. 2×/wk from 1 wk before irradiation (20 Gy)

T1 sequence (P21453 whole entry): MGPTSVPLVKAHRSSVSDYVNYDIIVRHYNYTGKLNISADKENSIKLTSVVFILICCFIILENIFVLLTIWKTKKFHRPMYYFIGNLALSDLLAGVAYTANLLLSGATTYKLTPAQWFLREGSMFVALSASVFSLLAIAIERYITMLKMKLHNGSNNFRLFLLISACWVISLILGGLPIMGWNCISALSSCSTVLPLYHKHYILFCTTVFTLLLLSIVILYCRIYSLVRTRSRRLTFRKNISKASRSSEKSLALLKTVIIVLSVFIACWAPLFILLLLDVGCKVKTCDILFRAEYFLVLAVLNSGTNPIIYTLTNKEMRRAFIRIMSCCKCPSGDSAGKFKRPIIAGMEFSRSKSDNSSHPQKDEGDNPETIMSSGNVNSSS

| Structure (SMILES) | ubiquitination of S1PR1 at 2 h (S1P receptor 1 (S1PR1) [1]) | S1PR1 expression level compared to control (S1P receptor 1 (S1PR1) [2]) [%] | activation of β-arrestin (blue/green emission ratio) (β-arrestin) | ERK phosphorylation (ERK) | % Inhibition of Maximal TER Response (of Agonist-Only Control), PTX (HPAEC [5]) | % Inhibition of Maximal TER Response (of Agonist-Only Control), MβCD (HPAEC [5]) | % Inhibition of Maximal TER Response (of Agonist-Only Control), Gen (HPAEC [5]) | maximal percentage TER change compared with S1P and FTY720 (HPAEC [6]; 1 μM) | maximal TER change (HPAEC [6]) | also measured |
| --- | --- | --- | --- | --- | --- | --- | --- | --- | --- | --- |
| FC(F)(F)c1cccc(-c2noc(-c3cc(-c4ccccc4)c(C(F)(F)F)s3)n2)c1 [SEW2871, 5-[4-phenyl-5-(trifluoromethyl)-2-thienyl]-3-[3-(trifluoromethyl)phenyl]-1,2,4-oxadiazole] | significant ubiquitination | 30.3 | strongly activated |  |  |  |  |  |  | radiation-induced probe extravasation (probe intensity), FMT imaging [3]: significant decreases; lung histology: inflammatory cell infiltration and interstitial edema induced by radiation ([4]; 0.1 mg/kg i.p. 2×/wk, 25 Gy): to a lesser extent; BAL cell counts vs RILI-challenged controls [4, 8]: dose-dependent protective effect; BAL protein vs RILI-challenged controls [4, 8]: dose-dependent protective effect |
| CCCCCCCCc1ccc(CC[C@@](N)(C=CP(=O)(O)O)CO)cc1 [2R, (R)-3-amino-3-(hydroxymethyl)-5-(4-octylphenyl)pent-1-enylphosphonic acid] |  |  |  | increased phosphorylation of ERK | 88.1 (±7.8) % | 87.4 (±5.4) % | 41.1 (±12.2) % | greater maximal percentage TER change | even greater maximal TER elevation |  |
| CCCCCCCCc1ccc(CC[C@](N)(C=CP(=O)(O)O)CO)cc1 [2S, (S)-3-amino-3-(hydroxymethyl)-5-(4-octylphenyl)pent-1-enylphosphonic acid] |  |  |  | failed to induce phosphorylation | 76.3 (±12.0) % | 95.2 (±1.0) % | 91.6 (±2.4) % |  | somewhat barrier-disruptive |  |
| CC(C)C[C@@H](C=O)NC(=O)[C@H](CC(C)C)NC(=O)[C@H](CC(C)C)NC(=O)OCc1ccccc1 [MG132, reference compound] (Cbz-Leu-Leu-Leu-aldehyde) |  |  |  |  |  |  |  |  |  | S1PR1 expression, MG132 alone (S1P receptor 1 (S1PR1) [2]; 10 μM): did not affect the expression of S1PR1 |
| CCCCCCCCc1ccc(CCC(O)(CN)CCO)cc1 (centres unmarked) [3R, 3-(aminomethyl)-5-(4-octylphenyl)pentane-1,3-diol] |  |  |  | did not increase ERK or MLC phosphorylation |  |  |  |  |  | MLC phosphorylation (MLC): did not increase ERK or MLC phosphorylation; TER response (tracing) (HPAEC [6]; 1 μM): barrier-disruptive; EC permeability to FITC-dextran vs control EC (HPAEC [7]): increase EC permeability |
| CCCCCCCCc1ccc(CC[C@](N)(CO)CCP(=O)(O)O)cc1 [1R, (R)-3-amino-3-(hydroxymethyl)-5-(4-octylphenyl)pentylphosphonic acid] | significant ubiquitination | 47.2 | strongly activated | increased phosphorylation of ERK | 79.2 (±5.9) % | 67.0 (±19.7) % | 54.3 (±14.7) % | greater maximal percentage TER change | even greater maximal TER elevation | ubiquitination of S1PR1 at 1 h (S1P receptor 1 (S1PR1) [1]; 1 μM, 1 h): only slight ubiquitination; S1PR1 expression, agonist without MG132 (S1P receptor 1 (S1PR1) [2]; 1 μM, 4 h (FIG. 18)): 66.3%; S1PR1 expression, agonist after MG132 pretreatment (S1P receptor 1 (S1PR1) [2]; MG132 10 μM 2 h, then 1 μM agonist 4 h): 94.2% |
